{"source": "paper PMC3174061", "about": "(Journal of the American Chemical Society, 2011)", "molecules": {"B1": {"name": "EcUdp (Escherichia coli K-12) (protein)", "chain": "SKSDVFHLGLTKNDLQGATLAIVPGDPDRVEKIAALMDKPVKLASHREFTTWRAELDGKPVIVCSTGIGGPSTSIAVEELAQLGIRTFLRIGTTGAIQPHINVGDVLVTTASVRLDGASLHFAPLEFPAVADFECTTALVEAAKSIGATTHVGVTASSDTFYPGQERYDTYSGRVVRHFKGSMEEWQAMGVMNYEMESATLLTMCASQGLRAGMVAGVIVNRTQQEIPNAETMKQTESHAVKIVVEAARRLL"}}, "key": {"[1]": {"biological_target": "LipO (Streptomyces sp. SANK 60405, UniProt D4QF28)", "test": "UV/Vis spectroscopy, co-purification", "assay_type": "binding", "settings": "co-purified cofactor, Lys282 internal aldimine expected"}, "[2]": {"biological_target": "LipN (Streptomyces sp. SANK 60405, UniProt D4QF27)", "test": "HPLC, MS and NMR of product", "assay_type": "biochemical", "settings": "sugar donor, uridine as surrogate acceptor, 5 mM MgCl2, 30 °C"}, "[3]": {"substrate": "NC[C@H]1O[C@@H](n2ccc(=O)[nH]c2=O)[C@H](O)[C@@H]1O", "test": "purified protein", "assay_type": "biochemical, Escherichia coli", "settings": "pH 7.5, […] phosphate, 30 °C"}}}
{"molecule": "Cc1ncc(COP(=O)(O)O)c(C=O)c1O", "note": "[PLP]", "values": [{"measurement": "UV/Vis spectroscopy, co-purification", "setting": "[1]", "result": "shown by UV/Vis spectroscopy to co-purify with the cofactor PLP"}]}
{"molecule": "NC[C@H]1O[C@H](OP(=O)(O)OP(=O)(O)OC[C@H]2O[C@@H](n3ccc(=O)[nH]c3=O)[C@H](O)[C@@H]2O)[C@H](O)[C@@H]1O", "note": "[UDP-5-amino-5-deoxy-α-D-ribose]", "values": [{"measurement": "HPLC, MS and NMR of product; donor generated in situ by LipP and LipM", "setting": "[2]", "result": "higher yields were obtained with the genuine sugar donor UDP-5-amino-5-deoxy-α-D-ribose"}]}
{"molecule": "B1", "values": [{"measurement": "Km", "setting": "[3]", "result": "(2.0 ± 0.5) × 10^3 µM"}, {"measurement": "kcat", "setting": "[3]", "result": "5.33 ± 0.667", "unit": "s⁻¹"}]}
